Results reported in the supplement of paper PMC10307832.

Assays:
Test in all cases: relative viability (nuclei count vs DMSO), 5 days (fraction); higher = more cells survive
EKVX = test system: EKVX
Summary of the method: (§1)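 Relative viability is defined as nuclei in treated wells over nuclei in vehicle wells. Duplicate plates were run and medians reported. Lung cancer cell lines in 1536-well plates were dosed by pin tool one day after seeding, with one drug or with a fixed anchor-drug dose plus five library-drug doses (not always all listed) in √10 steps, and nuclei were counted after 5 days.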

EMC-BAC-2 = test system: EMC-BAC-2
Summary of the method: as §1

EPLC-272H = test system: EPLC-272H
Summary of the method: as §1

HCC-78 = test system: HCC-78
Summary of the method: as §1

HCC-827 = test system: HCC-827
Summary of the method: as §1

LCLC-103H = test system: LCLC-103H
Summary of the method: as §1

LK-2 = test system: LK-2
Summary of the method: as §1

LU99A = test system: LU99A
Summary of the method: as §1

NCI-H1563 = test system: NCI-H1563
Summary of the method: as §1

NCI-H1666 = test system: NCI-H1666
Summary of the method: as §1

NCI-H1975 = test system: NCI-H1975
Summary of the method: as §1

NCI-H2126 = test system: NCI-H2126
Summary of the method: as §1

NCI-H23 = test system: NCI-H23
Summary of the method: as §1

NCI-H2405 = test system: NCI-H2405
Summary of the method: as §1

NCI-H322M = test system: NCI-H322M
Summary of the method: as §1

PC-14 = test system: PC-14
Summary of the method: as §1

RERF-LC-KJ = test system: RERF-LC-KJ
Summary of the method: as §1

SK-LU-1 = test system: SK-LU-1
Summary of the method: as §1

SW 1573 = test system: SW 1573
Summary of the method: as §1

`Cc1sc2c(c1C)C(c1ccc(Cl)cc1)=N[C@@H](CC(=O)OC(C)(C)C)c1nnc(C)n1-2` [JQ1] + C[C@]1(O)C[C@@H](c2nc(-c3ccc4ccc(-c5ccccc5)nc4c3)c3c(N)nccn32)C1 [Linsitinib] (partner 1 µM) showed a relative viability (EKVX; first compound 0.04 µM) of 0.935, a relative viability (EKVX; first compound 0.1265 µM) of 0.813 and a relative viability (EKVX; first compound 0.4 µM) of 1.01. For the same compound, the relative viability (EKVX; first compound 1.265 µM) was 0.72, the relative viability (EKVX; first compound 4 µM) was 0.461 and the relative viability (EMC-BAC-2; first compound 0.04 µM) was 0.815. For the same compound, the relative viability (EMC-BAC-2; first compound 0.1265 µM) was 0.812, the relative viability (EMC-BAC-2; first compound 0.4 µM) was 0.659 and the relative viability (EMC-BAC-2; first compound 1.265 µM) was 0.444. It also gave a relative viability (EMC-BAC-2; first compound 4 µM) of 0.47, a relative viability (EPLC-272H; first compound 0.04 µM) of 1.14 and a relative viability (EPLC-272H; first compound 0.1265 µM) of 1.07. For the same compound, the relative viability (EPLC-272H; first compound 0.4 µM) was 1.12, the relative viability (EPLC-272H; first compound 1.265 µM) was 0.502 and the relative viability (EPLC-272H; first compound 4 µM) was 0.418. It also gave a relative viability (HCC-78; first compound 0.04 µM) of 0.536, a relative viability (HCC-78; first compound 0.1265 µM) of 0.438 and a relative viability (HCC-78; first compound 0.4 µM) of 0.403. It also gave a relative viability (HCC-78; first compound 1.265 µM) of 0.255, a relative viability (HCC-78; first compound 4 µM) of 0.249 and a relative viability (HCC-827; first compound 0.04 µM) of 0.921. It also gave a relative viability (HCC-827; first compound 0.4 µM) of 1.16, a relative viability (HCC-827; first compound 1.265 µM) of 0.958 and a relative viability (HCC-827; first compound 4 µM) of 0.862. For the same compound, the relative viability (LCLC-103H; first compound 0.04 µM) was 1.01, the relative viability (LCLC-103H; first compound 0.1265 µM) was 0.751 and the relative viability (LCLC-103H; first compound 0.4 µM) was 0.805. For the same compound, the relative viability (LCLC-103H; first compound 1.265 µM) was 0.608, the relative viability (LCLC-103H; first compound 4 µM) was 0.456 and the relative viability (LK-2; first compound 0.04 µM) was 0.393. It also gave a relative viability (LK-2; first compound 0.1265 µM) of 0.662, a relative viability (LK-2; first compound 0.4 µM) of 0.233 and a relative viability (LK-2; first compound 1.265 µM) of 0.176. It also gave a relative viability (LK-2; first compound 4 µM) of 0.109, a relative viability (LU99A; first compound 0.04 µM) of 0.573 and a relative viability (LU99A; first compound 0.1265 µM) of 0.516. The relative viability (LU99A; first compound 0.4 µM) was 0.325, the relative viability (LU99A; first compound 1.265 µM) was 0.292 and the relative viability (LU99A; first compound 4 µM) was 0.202. For the same compound, the relative viability (NCI-H1563; first compound 0.04 µM) was 1.28, the relative viability (NCI-H1563; first compound 0.1265 µM) was 1.1 and the relative viability (NCI-H1563; first compound 0.4 µM) was 0.976. For the same compound, the relative viability (NCI-H1563; first compound 1.265 µM) was 0.722, the relative viability (NCI-H1563; first compound 4 µM) was 0.646 and the relative viability (NCI-H1666; first compound 0.04 µM) was 0.811. It also gave a relative viability (NCI-H1666; first compound 0.1265 µM) of 0.844, a relative viability (NCI-H1666; first compound 0.4 µM) of 0.842 and a relative viability (NCI-H1666; first compound 1.265 µM) of 0.475. The relative viability (NCI-H1666; first compound 4 µM) was 0.484, the relative viability (NCI-H1975; first compound 0.04 µM) was 0.864 and the relative viability (NCI-H1975; first compound 0.1265 µM) was 0.835. The relative viability (NCI-H1975; first compound 0.4 µM) was 0.723, the relative viability (NCI-H1975; first compound 1.265 µM) was 0.434 and the relative viability (NCI-H1975; first compound 4 µM) was 0.379. The relative viability (NCI-H2126; first compound 0.04 µM) was 0.725, the relative viability (NCI-H2126; first compound 0.1265 µM) was 1.52 and the relative viability (NCI-H2126; first compound 0.4 µM) was 0.651. The relative viability (NCI-H2126; first compound 1.265 µM) was 0.559, the relative viability (NCI-H2126; first compound 4 µM) was 0.432 and the relative viability (NCI-H23; first compound 0.04 µM) was 0.513. It also gave a relative viability (NCI-H23; first compound 0.1265 µM) of 0.555, a relative viability (NCI-H23; first compound 0.4 µM) of 0.385 and a relative viability (NCI-H23; first compound 1.265 µM) of 0.339. For the same compound, the relative viability (NCI-H23; first compound 4 µM) was 0.288, the relative viability (NCI-H2405; first compound 0.04 µM) was 0.919 and the relative viability (NCI-H2405; first compound 0.4 µM) was 0.779. The relative viability (NCI-H2405; first compound 1.265 µM) was 0.535, the relative viability (NCI-H2405; first compound 4 µM) was 0.537 and the relative viability (NCI-H322M; first compound 0.04 µM) was 0.546. For the same compound, the relative viability (NCI-H322M; first compound 0.1265 µM) was 0.935, the relative viability (NCI-H322M; first compound 0.4 µM) was 0.874 and the relative viability (NCI-H322M; first compound 1.265 µM) was 0.474. The relative viability (NCI-H322M; first compound 4 µM) was 0.462, the relative viability (PC-14; first compound 0.04 µM) was 0.936 and the relative viability (PC-14; first compound 0.1265 µM) was 0.735. It also gave a relative viability (PC-14; first compound 0.4 µM) of 0.779, a relative viability (PC-14; first compound 1.265 µM) of 0.611 and a relative viability (PC-14; first compound 4 µM) of 0.356. It also gave a relative viability (RERF-LC-KJ; first compound 0.04 µM) of 0.865, a relative viability (RERF-LC-KJ; first compound 0.1265 µM) of 1.07 and a relative viability (RERF-LC-KJ; first compound 0.4 µM) of 0.91. For the same compound, the relative viability (RERF-LC-KJ; first compound 1.265 µM) was 0.782, the relative viability (RERF-LC-KJ; first compound 4 µM) was 0.631 and the relative viability (SK-LU-1; first compound 0.04 µM) was 1.16. For the same compound, the relative viability (SK-LU-1; first compound 0.1265 µM) was 0.952, the relative viability (SK-LU-1; first compound 0.4 µM) was 0.782 and the relative viability (SK-LU-1; first compound 1.265 µM) was 0.239. The relative viability (SK-LU-1; first compound 4 µM) was 0.178, the relative viability (SW 1573; first compound 0.04 µM) was 0.697 and the relative viability (SW 1573; first compound 0.1265 µM) was 0.789. The relative viability (SW 1573; first compound 0.4 µM) was 0.711, the relative viability (SW 1573; first compound 1.265 µM) was 0.339 and the relative viability (SW 1573; first compound 4 µM) was 0.323.
